Measurements published in patent US4521418A, “Guanidinothiazolyl derivatives” (Smith Kline & French Laboratories Limited, priority 1979, dated 1985).

Test system: histamine H2 -receptors
Experiment: inhibition of histamine-stimulated secretion of gastric acid from Heidenhain pouch dogs
Format: in vivo
Details: Heidenhain pouch dog, 0.25 micromol kg^-1 i.v.
Method: Heidenhain pouch dogs are prepared by the following procedure. The abdomen of a male beagle (14-16 kg) is opened and the stomach is exteriorized. Blood vessels are ligated and cut at two places on the greater curvature to enable a piece of the fundus of the stomach to be cut away from the main stomach to form the pouch. The incision lines are sewn together to enable normal digestion. A stainless steel cannula is inserted into the pouch and the end not in the pouch is exteriorized through a stab wound in the abdominal wall to allow drainage of gastric juice under gravity. Finally, the abdomen is closed by a continuous suture. The dogs are ready for experimental use approximately three weeks after operation. The compounds of the invention are tested in Heidenhain pouch dogs by the following procedure. The dogs are starved for approximately 20 hours prior to the experiment and are then placed in Pavlov stands. A polythene cannula is placed in a leg vein and saline is infused for about one hour. A check is made that there is no basal acid secretion. Histamine (20 micromoles/hour) or pentagastrin (8 micrograms/kg/hour) is continuously infused in place of the saline. A plateau of acid secretion is reached after 11/2 to 2 hours and the test compound is administered intravenously or orally (contained within a hard gelatin capsule). Gastric juice is collected by drainage under gravity into perspex tubes attached to the gastric cannula. Normally samples are collected over fifteen minute periods. The volumes of the samples are measured and aliquots are titrated to pH 7.4 with 0.1N sodium hydroxide. Acid secretion is expressed as the product of the volume and acid concentration.

SMILES | duration of action | mean peak inhibition of histamine-stimulated gastric acid secretion
Cc1ccc(Cc2cnc(NCCSCc3csc(NC(=N)N)n3)[nH]c2=O)cn1 [Example 3, 2-[2-(2-guanidino-4-thiazolylmethylthio)ethylamino]-5-(6-methyl-3-pyridylmethyl)-4-pyrimidone] | extended duration of action | over 50%
N=C(N)Nc1nc(CSCCNc2ncc(Cc3cccnc3)c(=O)[nH]2)cs1 [Example 1, 2-[2-(2-guanidino-4-thiazolylmethylthio)ethylamino]-5-(3-pyridylmethyl)-4-pyrimidone] | extended duration of action | over 50%
